# Experiments:
# Conditions in all cases: 72 h
# Caco-2 [1] = experiment: cell viability relative to DMSO; higher = less toxic
# Calu-3 [2] = experiment: as above
# HepG2 [3] = experiment: as above
# U2OS [4] = experiment: as above
# Vero E6 [5] = experiment: as above
# Caco-2 [6] = experiment: relative viability EC50 (midpoint between 100% and the lowest measured viability); higher = less toxic
# Calu-3 [7] = experiment: as above
# HepG2 [8] = experiment: as above
# U2OS [9] = experiment: as above
# Vero E6 [10] = experiment: as above
# Caco-2 [11] = experiment: drug sensitivity score (DSS) for viability; higher = more toxic; extreme values may be limits of the assay
# Calu-3 [12] = experiment: as above
# HepG2 [13] = experiment: as above
# U2OS [14] = experiment: as above
# Vero E6 [15] = experiment: as above
SMILES,cell viability (Caco-2 [1]; 1 nM) [%],cell viability (Caco-2 [1]; 10 nM) [%],cell viability (Caco-2 [1]; 100 nM) [%],cell viability (Caco-2 [1]; 1000 nM) [%],cell viability (Caco-2 [1]; 10000 nM) [%],cell viability (Calu-3 [2]; 1 nM) [%],cell viability (Calu-3 [2]; 10 nM) [%],cell viability (Calu-3 [2]; 100 nM) [%],cell viability (Calu-3 [2]; 1000 nM) [%],cell viability (Calu-3 [2]; 10000 nM) [%],cell viability (HepG2 [3]; 1 nM) [%],cell viability (HepG2 [3]; 10 nM) [%],cell viability (HepG2 [3]; 100 nM) [%],cell viability (HepG2 [3]; 1000 nM) [%],cell viability (HepG2 [3]; 10000 nM) [%],cell viability (U2OS [4]; 1 nM) [%],cell viability (U2OS [4]; 10 nM) [%],cell viability (U2OS [4]; 100 nM) [%],cell viability (U2OS [4]; 1000 nM) [%],cell viability (U2OS [4]; 10000 nM) [%],cell viability (Vero E6 [5]; 1 nM) [%],cell viability (Vero E6 [5]; 10 nM) [%],cell viability (Vero E6 [5]; 100 nM) [%],cell viability (Vero E6 [5]; 1000 nM) [%],cell viability (Vero E6 [5]; 10000 nM) [%],relative viability EC50 (Caco-2 [6]) [µM],relative viability EC50 (Calu-3 [7]) [µM],relative viability EC50 (HepG2 [8]) [µM],relative viability EC50 (U2OS [9]) [µM],relative viability EC50 (Vero E6 [10]) [µM],drug sensitivity score (Caco-2 [11]),drug sensitivity score (Calu-3 [12]),drug sensitivity score (HepG2 [13]),drug sensitivity score (U2OS [14]),drug sensitivity score (Vero E6 [15])
COc1cc(OC)cc(C(=O)NNC(=O)Nc2cccc3ccccc23)c1 [TC-O-9311],96.3,112,101,102,88,84.2,92.1,93.6,97.8,107,100,101,92.3,90.9,98.7,99,100,98.3,101,98.4,102,102,94.9,94.1,96,> 10,> 10,> 10,> 10,> 10,0,0,0,0,0
CC(C)C(=O)SCCCCC[C@H](NC(=O)OC(C)(C)C)C(=O)NC12CC3CC(CC(C3)C1)C2 [TCS-HDAC6-20b],97.7,96.9,95.5,102,103,101,93.3,95.6,108,85.3,101,99.3,101,96.5,105,101,102,106,98.4,98.4,96.5,96.2,97,98.9,113,> 10,> 10,> 10,> 10,> 10,0,0.1,0,0,0
CCN1/C(=C/C(C)=O)Sc2ccc(OC)cc21 [TG-003],98.9,92.9,96.6,99.2,95.4,99.2,105,106,96.8,102,98,96.9,93,93.2,87.2,106,98.7,96.9,104,102,98.9,98.6,99.1,93.5,93.7,> 10,> 10,> 10,> 10,> 10,0,0,0.1,0,0
CC(C)[C@](O)(c1ccc2cc(OC(F)F)c(OC(F)F)cc2c1)c1c[nH]nn1 [VT-464],93.3,103,105,95.1,88.3,104,101,93.2,93,96.5,101,104,98.1,109,90.8,96.3,101,99.2,102,93,98.8,103,99.3,98.2,94.5,> 10,> 10,> 10,> 10,> 10,0.2,0,0,0,0
CCC(=O)OCC(=O)[C@@]1(OC(=O)CC)[C@H](C)C[C@H]2[C@H]3[C@H]([C@@H](O)C[C@@]21C)[C@@]1(C)C=CC(=O)C=C1C[C@H]3Cl [alclometasone-dipropionate],97.3,101,99.7,94.7,96.8,96,88.1,90.2,95.6,97.6,103,101,112,90.4,91.1,97.2,97,91.7,96.6,90.8,108,101,104,98,106,> 10,> 10,> 10,> 10,> 10,0,0,0,0,0
CNC(=O)[C@@H](c1ccccc1)N1CCc2cc(OC)c(OC)cc2[C@@H]1CCc1ccc(C(F)(F)F)cc1 [almorexant],92.1,99.3,96.1,108,76,94.3,91.6,94.4,95.9,98.4,102,103,99.5,94.2,94.1,94.7,104,91.2,99.4,92.6,97.4,93,95.4,92.3,109,> 10,> 10,> 10,> 10,> 10,0.6,0,0,0,0
COc1cc(NS(C)(=O)=O)ccc1Nc1c2ccccc2nc2ccccc12 [amsacrine],101,90.9,97.3,91.6,14.3,105,93.7,80.3,61.5,12.3,87.4,89.9,78.5,48.8,29,103,98.1,99.5,96.9,37.2,93,89.3,94.6,65.2,41.7,2.35,0.866,0.241,2.79,0.677,6.1,10.3,12.6,3.9,7.4
COc1cc(C(C)=O)ccc1O [apocynin],104,94.2,100,86.8,93.9,95.2,89.6,91.5,89.5,105,95.8,95.8,104,98.8,96.8,99.8,97.9,101,96.2,98.2,97.8,100,96.6,98.8,93.6,> 10,> 10,> 10,> 10,> 10,0,0,0,0,0
CC(C)(C)NCC(O)CSc1nc(-c2ccc(C(N)=O)s2)cs1 (stereo not given) [arotinolol],105,104,90.6,106,107,102,98.4,107,94.1,99.9,88.7,96.9,100,92.8,104,96,100,99.9,102,94.6,103,98.1,106,108,98.4,> 10,> 10,> 10,> 10,> 10,0,0,0,0,0
CO[C@H]1O[C@@H]2O[C@@]3(C)CC[C@H]4[C@H](C)CC[C@@H]([C@H]1C)[C@@]24OO3 [artemether],95.4,94.5,97.3,86.6,86.2,106,108,96.3,101,96.5,97.6,101,103,92.1,87.8,99.1,97.1,101,96.6,94.4,103,106,92.1,95.9,96.9,> 10,> 10,> 10,> 10,> 10,0.4,0,0.4,0,0
CCOc1nc2cccc(C(=O)O)c2n1Cc1ccc(-c2ccccc2-c2noc(=O)[nH]2)cc1 [azilsartan],103,91.4,91.9,103,95.7,94.2,98.2,96,93,91.5,93.5,103,102,108,102,102,93.6,99.5,93.3,97.5,99,102,98.1,103,94.3,> 10,> 10,> 10,> 10,> 10,0,0,0,0,0
COc1ccc(NC(=O)c2ccc(C(=N)N(C)C)cc2)c(C(=O)Nc2ccc(Cl)cn2)c1 [betrixaban],101,97.5,97.5,97.6,91.5,90.9,101,105,95.1,95.5,98.6,100,105,96.3,100,96.2,100,95.6,100,97.8,98.7,99.1,97.3,96.4,93.9,> 10,> 10,> 10,> 10,> 10,0,0,0,0,0
Cc1ccc(C23CNCC2C3)cc1 (stereo not given) [bicifadine],103,99,106,110,97.4,115,96,104,105,103,99.7,88.8,100,96.3,94.7,96.8,98.9,103,102,96.4,97.7,93.8,98.8,96.3,99.8,> 10,> 10,> 10,> 10,> 10,0,0,0,0,0
